Measurements taken from patent US9113629B2, “4-amino-6-(4-substituted-phenyl)-picolinates and 6-amino-2-(4-substituted-phenyl)-pyrimidine-4-carboxylates and their use as herbicides” (DOW AGROSCIENCES LLC, priority 2013, dated 2015).

Tested on: Key Broadleaf Weed and Crop Species
Experiment: Post-emergent Test II herbicidal activity (Table 5)
Format: in vivo
Details: post-emergence, 336 h; ABUTH: velvetleaf (Abutilon theophrasti); application rate 70 g ai/ha; post-emergent; 14 days after application; read-out: Visual Growth Reduction (%) 14 Days After Application, ABUTH
Method in brief: (§1)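 Compounds, dissolved in 97:3 acetone/DMSO and diluted into an aqueous carrier containing crop oil concentrate and Triton X-155, are applied over the top of young plants at 187 L/ha. Injury is scored visually at 14 d, 0% meaning no effect and 100% complete kill.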
In the case of `COC(=O)c1nc(-c2cc(F)c(C)cc2F)c(F)c(N)c1Cl` [Compound 184], the pest or weed control at 70 g/ha is reported as 95 to 100%.

Same assay, conditions: post-emergence, 336 h; ABUTH: velvetleaf (Abutilon theophrasti); application rate 140 g ai/ha; post-emergent; 14 days after application; read-out: Visual Growth Reduction (%) 14 Days After Application, ABUTH
In the case of `COC(=O)c1nc(-c2cc(F)c(C)cc2F)c(F)c(N)c1Cl` [Compound 184], the pest or weed control at 140 g/ha is reported as 95 to 100%.

Same assay, conditions: post-emergence, 336 h; AMARE: redroot pigweed (Amaranthus retroflexus); application rate 70 g ai/ha; post-emergent; 14 days after application; read-out: Visual Growth Reduction (%) 14 Days After Application, AMARE
Molecule `COC(=O)c1nc(-c2cc(F)c(C)cc2F)c(F)c(N)c1Cl` [Compound 184] has a pest or weed control at 70 g/ha of 85 to 94%.

Same assay, conditions: post-emergence, 336 h; AMARE: redroot pigweed (Amaranthus retroflexus); application rate 140 g ai/ha; post-emergent; 14 days after application; read-out: Visual Growth Reduction (%) 14 Days After Application, AMARE
For `COC(=O)c1nc(-c2cc(F)c(C)cc2F)c(F)c(N)c1Cl` [Compound 184], the pest or weed control at 140 g/ha was 95 to 100%.

Same assay, conditions: post-emergence, 336 h; BRSNN: oilseed-rape, canola (Brassica napus); application rate 70 g ai/ha; post-emergent; 14 days after application; read-out: Visual Growth Reduction (%) 14 Days After Application, BRSNN
In the case of `COC(=O)c1nc(-c2cc(F)c(C)cc2F)c(F)c(N)c1Cl` [Compound 184], the pest or weed control at 70 g/ha is reported as 85 to 94%.

Same assay, conditions: post-emergence, 336 h; BRSNN: oilseed-rape, canola (Brassica napus); application rate 140 g ai/ha; post-emergent; 14 days after application; read-out: Visual Growth Reduction (%) 14 Days After Application, BRSNN
Molecule `COC(=O)c1nc(-c2cc(F)c(C)cc2F)c(F)c(N)c1Cl` [Compound 184] has a pest or weed control at 140 g/ha of 95 to 100%.

Same assay, conditions: post-emergence, 336 h; CHEAL: lambsquarters (Chenopodium album); application rate 70 g ai/ha; post-emergent; 14 days after application; read-out: Visual Growth Reduction (%) 14 Days After Application, CHEAL
For `COC(=O)c1nc(-c2cc(F)c(C)cc2F)c(F)c(N)c1Cl` [Compound 184], the pest or weed control at 70 g/ha was 85 to 94%.

Same assay, conditions: post-emergence, 336 h; CHEAL: lambsquarters (Chenopodium album); application rate 140 g ai/ha; post-emergent; 14 days after application; read-out: Visual Growth Reduction (%) 14 Days After Application, CHEAL
Molecule `COC(=O)c1nc(-c2cc(F)c(C)cc2F)c(F)c(N)c1Cl` [Compound 184] has a pest or weed control at 140 g/ha of 95 to 100%.

Same assay, conditions: post-emergence, 336 h; EPHHL: wild poinsettia (Euphorbia heterophylla); application rate 70 g ai/ha; post-emergent; 14 days after application; read-out: Visual Growth Reduction (%) 14 Days After Application, EPHHL
`COC(=O)c1nc(-c2cc(F)c(C)cc2F)c(F)c(N)c1Cl` [Compound 184] gave a pest or weed control at 70 g/ha of 85 to 94%.

Same assay, conditions: post-emergence, 336 h; EPHHL: wild poinsettia (Euphorbia heterophylla); application rate 140 g ai/ha; post-emergent; 14 days after application; read-out: Visual Growth Reduction (%) 14 Days After Application, EPHHL
With `COC(=O)c1nc(-c2cc(F)c(C)cc2F)c(F)c(N)c1Cl` [Compound 184] the pest or weed control at 140 g/ha was 95 to 100%.

Same assay, conditions: post-emergence, 336 h; HELAN: sunflower (Helianthus annuus); application rate 70 g ai/ha; post-emergent; 14 days after application; read-out: Visual Growth Reduction (%) 14 Days After Application, HELAN
`COC(=O)c1nc(-c2cc(F)c(C)cc2F)c(F)c(N)c1Cl` [Compound 184] gave a pest or weed control at 70 g/ha of 95 to 100%.

Same assay, conditions: post-emergence, 336 h; HELAN: sunflower (Helianthus annuus); application rate 140 g ai/ha; post-emergent; 14 days after application; read-out: Visual Growth Reduction (%) 14 Days After Application, HELAN
In the case of `COC(=O)c1nc(-c2cc(F)c(C)cc2F)c(F)c(N)c1Cl` [Compound 184], the pest or weed control at 140 g/ha is reported as 95 to 100%.

Same assay, conditions: post-emergence, 336 h; VIOTR: wild pansy (Viola tricolor); application rate 70 g ai/ha; post-emergent; 14 days after application; read-out: Visual Growth Reduction (%) 14 Days After Application, VIOTR
Molecule `COC(=O)c1nc(-c2cc(F)c(C)cc2F)c(F)c(N)c1Cl` [Compound 184] has a pest or weed control at 70 g/ha of 0 to 29%.

Same assay, conditions: post-emergence, 336 h; VIOTR: wild pansy (Viola tricolor); application rate 140 g ai/ha; post-emergent; 14 days after application; read-out: Visual Growth Reduction (%) 14 Days After Application, VIOTR
With `COC(=O)c1nc(-c2cc(F)c(C)cc2F)c(F)c(N)c1Cl` [Compound 184] the pest or weed control at 140 g/ha was 0 to 29%.

Tested on: Key Grass and Sedge Weeds as well as Grass Crops
Experiment: Post-emergent Test II herbicidal activity (Table 6)
Format: in vivo
Details: post-emergence, 336 h, CYPES: yellow nutsedge (Cyperus esculentus), application rate 70 g ai/ha, read-out: Visual Growth Reduction (%) 14 Days After Application, CYPES
Method in brief: as §1
With `COC(=O)c1nc(-c2cc(F)c(C)cc2F)c(F)c(N)c1Cl` [Compound 184] the pest or weed control at 70 g/ha was 0 to 29%.

Same assay, conditions: post-emergence, 336 h, CYPES: yellow nutsedge (Cyperus esculentus), application rate 140 g ai/ha, read-out: Visual Growth Reduction (%) 14 Days After Application, CYPES
In the case of `COC(=O)c1nc(-c2cc(F)c(C)cc2F)c(F)c(N)c1Cl` [Compound 184], the pest or weed control at 140 g/ha is reported as 0 to 29%.

Same assay, conditions: post-emergence, 336 h, DIGSA: crabgrass (Digitaria sanguinalis), application rate 70 g ai/ha, read-out: Visual Growth Reduction (%) 14 Days After Application, DIGSA
In the case of `COC(=O)c1nc(-c2cc(F)c(C)cc2F)c(F)c(N)c1Cl` [Compound 184], the pest or weed control at 70 g/ha is reported as 0 to 29%.

Same assay, conditions: post-emergence, 336 h, DIGSA: crabgrass (Digitaria sanguinalis), application rate 140 g ai/ha, read-out: Visual Growth Reduction (%) 14 Days After Application, DIGSA
For `COC(=O)c1nc(-c2cc(F)c(C)cc2F)c(F)c(N)c1Cl` [Compound 184], the pest or weed control at 140 g/ha was 0 to 29%.

Same assay, conditions: post-emergence, 336 h, ECHCG: barnyardgrass (Echinochloa crus-galli), application rate 70 g ai/ha, read-out: Visual Growth Reduction (%) 14 Days After Application, ECHCG
With `COC(=O)c1nc(-c2cc(F)c(C)cc2F)c(F)c(N)c1Cl` [Compound 184] the pest or weed control at 70 g/ha was 45 to 59%.

Same assay, conditions: post-emergence, 336 h, ECHCG: barnyardgrass (Echinochloa crus-galli), application rate 140 g ai/ha, read-out: Visual Growth Reduction (%) 14 Days After Application, ECHCG
Work on `COC(=O)c1nc(-c2cc(F)c(C)cc2F)c(F)c(N)c1Cl` [Compound 184] yielded a pest or weed control at 140 g/ha of 60 to 74%.

Same assay, conditions: post-emergence, 336 h, ORYSA: rice (Oryza sativa), application rate 70 g ai/ha, read-out: Visual Growth Reduction (%) 14 Days After Application, ORYSA
In the case of `COC(=O)c1nc(-c2cc(F)c(C)cc2F)c(F)c(N)c1Cl` [Compound 184], the pest or weed control at 70 g/ha is reported as 0 to 29%.

Same assay, conditions: post-emergence, 336 h, ORYSA: rice (Oryza sativa), application rate 140 g ai/ha, read-out: Visual Growth Reduction (%) 14 Days After Application, ORYSA
For `COC(=O)c1nc(-c2cc(F)c(C)cc2F)c(F)c(N)c1Cl` [Compound 184], the pest or weed control at 140 g/ha was 0 to 29%.

Same assay, conditions: post-emergence, 336 h, SETFA: giant foxtail (Setaria faberi), application rate 70 g ai/ha, read-out: Visual Growth Reduction (%) 14 Days After Application, SETFA
`COC(=O)c1nc(-c2cc(F)c(C)cc2F)c(F)c(N)c1Cl` [Compound 184] gave a pest or weed control at 70 g/ha of 0 to 29%.

Same assay, conditions: post-emergence, 336 h, SETFA: giant foxtail (Setaria faberi), application rate 140 g ai/ha, read-out: Visual Growth Reduction (%) 14 Days After Application, SETFA
`COC(=O)c1nc(-c2cc(F)c(C)cc2F)c(F)c(N)c1Cl` [Compound 184] gave a pest or weed control at 140 g/ha of 0 to 29%.

Same assay, conditions: post-emergence, 336 h, SORVU: grain sorghum (Sorghum vulgare), application rate 70 g ai/ha, read-out: Visual Growth Reduction (%) 14 Days After Application, SORVU
With `COC(=O)c1nc(-c2cc(F)c(C)cc2F)c(F)c(N)c1Cl` [Compound 184] the pest or weed control at 70 g/ha was 0 to 29%.

Same assay, conditions: post-emergence, 336 h, SORVU: grain sorghum (Sorghum vulgare), application rate 140 g ai/ha, read-out: Visual Growth Reduction (%) 14 Days After Application, SORVU
Molecule `COC(=O)c1nc(-c2cc(F)c(C)cc2F)c(F)c(N)c1Cl` [Compound 184] has a pest or weed control at 140 g/ha of 30 to 44%.

Same assay, conditions: post-emergence, 336 h, TRZSS (wheat, Triticum aestivum), application rate 70 g ai/ha, read-out: Visual Growth Reduction (%) 14 Days After Application, TRZSS
With `COC(=O)c1nc(-c2cc(F)c(C)cc2F)c(F)c(N)c1Cl` [Compound 184] the pest or weed control at 70 g/ha was 0 to 29%.

Same assay, conditions: post-emergence, 336 h, TRZSS (wheat, Triticum aestivum), application rate 140 g ai/ha, read-out: Visual Growth Reduction (%) 14 Days After Application, TRZSS
With `COC(=O)c1nc(-c2cc(F)c(C)cc2F)c(F)c(N)c1Cl` [Compound 184] the pest or weed control at 140 g/ha was 0 to 29%.

Same assay, conditions: post-emergence, 336 h, ZEAMX: maize, corn (Zea mays), application rate 70 g ai/ha, read-out: Visual Growth Reduction (%) 14 Days After Application, ZEAMX
`COC(=O)c1nc(-c2cc(F)c(C)cc2F)c(F)c(N)c1Cl` [Compound 184] gave a pest or weed control at 70 g/ha of 0 to 29%.

Same assay, conditions: post-emergence, 336 h, ZEAMX: maize, corn (Zea mays), application rate 140 g ai/ha, read-out: Visual Growth Reduction (%) 14 Days After Application, ZEAMX
Work on `COC(=O)c1nc(-c2cc(F)c(C)cc2F)c(F)c(N)c1Cl` [Compound 184] yielded a pest or weed control at 140 g/ha of 0 to 29%.

Tested on: not given
Experiment: not given
Details: not given
Molecule `COC(=O)c1nc(-c2cc(F)c(C)cc2F)c(F)c(N)c1Cl` [Compound 184] has a melting point of 116.5 to 118.8 °C.
